Tests used:
Z-138 cells = assay: Z138 Cell Proliferation Assay; format: cell-based; details: Z-138 human mantle cell lymphoma cells, 72 hours, CTG readout
Experimental: Human Mantle Cell Lymphoma
Z-138 cells were plated in a 96-well plate in IMDM medium containing 10% Horse Serum and PenStrep at a density of 10,000 cells/well. The plates were incubated at 37° C. in a humidified, 5% CO2 incubator. The next day, serially diluted compounds were added in duplicates for 72 hours. Compounds were tested at 10, 2.5, 0.625, 0.156, 0.039, 0.010 0.002 and 0 uM final concentrations. After 72 hours of compound addition, […] of Promega's CTG assay reagent was added and incubated at room temperature for 10 minutes. Chemiluminescence was read using a GloMax Discover instrument.

PRMT5 = PRMT5 (Homo sapiens (Human), UniProt O14744); assay: PRMT5 Chemiluminescent Assay; format: biochemical; details: PRMT5 chemiluminescent assay kit (BPS Bioscience), histone H4 peptide substrate, eight-point dose response
Experimental: The PRMT5 activity is measured by using “PRMT5 Chemiluminescent Assay Kit” from BPS Bioscience, Catalog Number 52002L as per the instructions of the manufacturer. Briefly, the PRMT5 enzyme is incubated with S-adenosylmethionine in a 96-well plate precoated with histone H4 peptide substrate. Next, a highly specific antibody that recognizes methylated R3 residue of Histone H4 is added followed by a horseradkish peroxidase-labeled (HRP-labeled) secondary antibody. Detection is done by the addition of the HRP substrate to produce chemiluminescence that can be measured quantitatively.
Compounds were serially diluted 3-fold and dosed from 10 uM down to 0 uM. Compounds were tested in duplicates to generate an eight-point dose response for the calculation of their IC50s.

[1] = Mouse Pharmacokinetic Studies; format: in vivo; details: male BALB/c mice, 3 mg/kg IV tail bolus, plasma
Experimental: Samples were obtained from 3 male BALB/c mice at staggered time points. Each mouse was given a tail bolus injection of 3 mg/kg injection of Compound 70 formulated as an IV solution with DMSO: PEG400: Aqueous solution with 20% HP-β-CD (5:30:65, v:v:v) (adjusted by 1N HCl). Blood samples (collected into lithium heparin tubes) were obtained at predose, and at 5, 15, 30 min and at 1, 2-, 4-, 8- and 24-hour, post injection. Plasma was separated from blood and stored at −20° C. prior to analysis. Samples were assayed by a LC/MS/MS procedure [AB Sciex API 4000; ACE Excel 5 C4 Column (50 mm*2.1 mm); Mobile Phase A: 5 mM NH4OAc (with 0.05% FA); Mobile Phase B: ACN (with 0.1% FA)]. Pharmacokinetic parameters were obtained from plasma concentrations using the R program—PK Package, Basic Non-Compartmental Pharmacokinetics, Thomas Jaki and Martin J. Wolfsegger Version 1.3-3, Jan. 6, 2016.

Sequence of PRMT5 (O14744 2-637): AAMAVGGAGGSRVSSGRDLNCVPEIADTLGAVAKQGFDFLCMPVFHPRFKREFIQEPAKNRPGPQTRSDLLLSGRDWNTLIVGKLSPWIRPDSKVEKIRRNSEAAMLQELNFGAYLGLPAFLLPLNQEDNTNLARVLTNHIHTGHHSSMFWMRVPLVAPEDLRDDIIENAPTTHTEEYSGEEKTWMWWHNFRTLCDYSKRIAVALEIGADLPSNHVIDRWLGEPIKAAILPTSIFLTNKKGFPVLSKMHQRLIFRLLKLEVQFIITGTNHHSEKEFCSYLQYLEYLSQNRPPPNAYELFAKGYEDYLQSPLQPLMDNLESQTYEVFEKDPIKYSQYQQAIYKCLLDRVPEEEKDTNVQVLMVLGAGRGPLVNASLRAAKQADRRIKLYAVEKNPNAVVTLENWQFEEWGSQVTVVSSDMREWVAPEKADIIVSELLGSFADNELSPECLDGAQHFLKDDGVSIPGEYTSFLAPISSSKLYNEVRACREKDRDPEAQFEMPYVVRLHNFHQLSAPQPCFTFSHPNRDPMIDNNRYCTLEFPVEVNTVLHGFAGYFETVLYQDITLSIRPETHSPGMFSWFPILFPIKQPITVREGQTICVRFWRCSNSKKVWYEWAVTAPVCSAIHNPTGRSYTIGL
Sequence of PRMT5 (Q9BQA1 2-342 partner): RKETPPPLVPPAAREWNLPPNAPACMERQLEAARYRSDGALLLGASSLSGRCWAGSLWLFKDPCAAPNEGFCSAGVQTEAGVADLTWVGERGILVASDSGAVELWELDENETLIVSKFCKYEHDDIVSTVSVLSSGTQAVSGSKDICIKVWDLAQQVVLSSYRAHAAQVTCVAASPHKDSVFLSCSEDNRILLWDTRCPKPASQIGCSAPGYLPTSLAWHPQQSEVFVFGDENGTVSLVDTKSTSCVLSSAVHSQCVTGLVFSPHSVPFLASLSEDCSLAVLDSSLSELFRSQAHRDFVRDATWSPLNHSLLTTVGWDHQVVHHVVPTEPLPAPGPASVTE

Structure (SMILES)	IC50 (PRMT5) [µM]	IC50 (Z-138 cells) [µM]	other results
COc1ccc(-c2ccc3c(=O)n(C[C@H](O)CN4CCc5ccccc5C4)c(=O)n(CC4CC4)c3c2)cn1 [Compound 91, 1-(cyclopropylmethyl)-3-[(2R)-3-(3,4-dihydro-1H-isoquinolin-2-yl)-2-hydroxy-propyl]-7-(6-methoxy-3-pyridyl)quinazoline-2,4-dione]	0.043	1.93	
O=c1c2cc(-c3ccc(F)cc3)ccc2n(CC(F)F)c(=O)n1C[C@H](O)CN1CCc2ccccc2C1 [Compound 94, 1-(2,2-difluoroethyl)-3-[(2R)-3-(3,4-dihydro-1H-isoquinolin-2-yl)-2-hydroxy-propyl]-6-(4-fluorophenyl)quinazoline-2,4-dione]	0.045	10	
O=c1c2ccccc2n(CC2CCC2)c(=O)n1C[C@H](O)CN1CCc2ccccc2C1 [Compound 92, 1-(cyclobutylmethyl)-3-[(2R)-3-(3,4-dihydro-1H-isoquinolin-2-yl)-2-hydroxy-propyl]quinazoline-2,4-dione]	0.036	3.63	
O=c1c2ccccc2n(CC2CC2)c(=O)n1C[C@H](O)CN1CCc2ccccc2C1 [Compound 74, 1-(cyclopropylmethyl)-3-[(2R)-3-(3,4-dihydro-1H-isoquinolin-2-yl)-2-hydroxy-propyl]quinazoline-2,4-dione]		2.94	IC50 Values (PRMT5): <0.014 μMolar
CC(C)Cn1c(=O)n(C[C@H](O)CN2CCc3ccccc3C2)c(=O)c2ccc(Br)cc21 [Compound 70, 7-bromo-3-[(2R)-3-(3,4-dihydro-1H-isoquinolin-2-yl)-2-hydroxy-propyl]-1-isobutyl-quinazoline-2,4-dione]		0.673	IC50 Values (PRMT5): <0.014 μMolar; AUC(0-inf) [1]: 0.748 µg·h/mL; C0 [1]: 1.52 µg/mL; MRT inf [1]: 1.22 h; clearance [1]: 4.01 L/h/kg; half-life [1]: 1.56 h; Vd ([1]; read-out: Vss): 4.88 L/kg

Now from value to molecule, other results behind:

IC50 (PRMT5) [µM]	Structure (SMILES)	IC50 (Z-138 cells) [µM]	other results
0.029	O=c1c2ccccc2n(CC(F)F)c(=O)n1C[C@H](O)CN1CCc2ccccc2C1 [Compound 79, 1-(2,2-difluoroethyl)-3-[(2R)-3-(3,4-dihydro-1H-isoquinolin-2-yl)-2-hydroxy-propyl]quinazoline-2,4-dione]	2.85	
0.009	O=c1c2ccc(Br)cc2n(CC2CC2)c(=O)n1C[C@H](O)CN1CCc2ccccc2C1 [Compound 80, 7-bromo-1-(cyclopropylmethyl)-3-[(2R)-3-(3,4-dihydro-1H-isoquinolin-2-yl)-2-hydroxy-propyl]quinazoline-2,4-dione]	1.12	
0.012	O=c1c2ccc(Cl)cc2n(CC2CC2)c(=O)n1C[C@H](O)CN1CCc2ccccc2C1 [Compound 78, 7-chloro-1-(cyclopropylmethyl)-3-[(2R)-3-(3,4-dihydro-1H-isoquinolin-2-yl)-2-hydroxy-propyl]quinazoline-2,4-dione]	1.95	

Reference: patent publication US20250084060A1, “PRMT5 INHIBITORS AND METHODS OF TREATMENT” (HANGZHOU UNOGEN BIOTECH, LTD., priority 2022, published 2025)
